Results as given in patent US9637484B2, “Cycloalkyl acid derivative, preparation method thereof, and pharmaceutical application thereof” (Shanghai Hengrui Pharmaceutical Co., Ltd., priority 2013, dated 2017).

Columns and labels:
hURAT1 = hURAT1 (Homo sapiens (Human), UniProt Q96S37); assay: Assay for inhibiting URAT1: uptake of 14C-uric acid in HEK293/hURAT1 cells; type: cell-based; conditions: 14C-uric acid 11.57 μM, 12 minutes at room temperature
Procedure: In vitro URAT1 assay can be used to identify compounds having potential activity for decreasing serum uric acid. In a suitable test, the vectors that encode human URAT1 (URAT1 cDNA: Guangzhou Copoeia EX-T4563-M02) were used to transfect cells (human embryonic kidney cells, HEK293: Cell Bank of the Chinese Academy of Sciences, GNHu18). The transfected cells—HEK293/hURAT1 cells—were obtained, then their uptake ability of radiolabeled uric acid was determined. The activity of the compounds as URAT1 inhibitors can be evaluated by the ability of the compounds to block the uptake of uric acid in the transfected cells.
The HEK293/hURAT1 cells in Eagle's minimal essential medium (EMEM) were inoculated in a 48-well plate that was coated with poly-D-lysine (Becton Dickinson, Catalog No. 356509), with an inoculation density of 10^5 cells/well, and incubated overnight. A reaction solution containing ^14C— uric acid (American Radioactive Compound, Catalog No. ARC 0513A) with a final concentration of 11.57 μM was prepared by the use or non-use of the test compounds in Hanks balanced salt solution (HBSS). The Hanks balanced salt solution (HBSS) contained 125 mM sodium gluconate, 4.8 mM potassium gluconate, 1.2 mM potassium dihydrogen phosphate, 1.2 mM magnesium sulfate, 1.3 mM calcium gluconate, 5.6 mM glucose and 25 mM HEPES (pH 7.3). After the medium was washed with the wash buffer (125 mM sodium gluconate, 10 mM HEPES, pH 7.3) for one time, the reaction solution prepared from the above step was added to each well and incubated at room temperature for 12 minutes. Then the reaction solution was removed, the cells were washed twice with the wash buffer and lysed with 0.2 M NaOH for 5 minutes. The cell lysate was transferred to a 96-well culture plate with a scintillation fluid (PerkinElmer, Catalog No. 1450-401), and counting of radioactivity was carried out on a Microbeta counter (PerkinElmer).
The test compounds were dissolved in DMSO, then DMSO with the same concentration was added to HEK293/hURAT1 cell wells without the test compounds. Cellular uptake of uric acid under various test conditions was expressed as average percentage inhibition rates in comparison to DMSO control. Radioactive values from the wells containing DMSO were considered as 100% uptake of the cells. IC50 values were calculated from the data of the inhibition rates at various concentrations.
The above assay was used to determine the biochemical activity of the compounds of the present invention for inhibiting hURAT1.

[1] = Pharmacokinetics assay in SD rats, intragastric administration, plasma by LC/MS/MS; type: in vivo, Sprague-Dawley (SD) rats; conditions: 3.0 mg/kg; for Vd/F / AUC / CL/F / half-life / MRT / Cmax: both sexes, Sprague-Dawley, rat, plasma, po; for Vd/F: read-out: Apparent Distribution Volume Vz/F; for AUC: read-out: Area Under Curve AUC; for CL/F: read-out: Clearance CL/F; for half-life: read-out: Half-Life T½ (converted); for MRT: read-out: Mean Residence Time MRT; for Cmax: read-out: Plasma Conc. Cmax
Procedure: Sprague-Dawley (SD) rats were used as test animals. The compounds of Example 1, Example 2 and Example 3 were administered intragastrically to rats to determine the drug concentration in plasma at different time points by a LC/MS/MS method. The pharmacokinetic behavior of the compounds of the present invention was studied and evaluated in rats.
12 Healthy adult SD rats, half male and half female, purchased from SINO-BRITSH SIPPR/BK LAB. ANIMAL LTD., CO, Certificate No.: SCXK (Shanghai) 2008-0016, were divided into three groups, with 4 rats in each group.
The appropriate amounts of test compounds were weighed and mixed with 0.5% CMC-Na to prepare a 0.3 mg/mL suspension by an ultrasonic method.
After an overnight fast, 12 SD rats, half male and half female, were divided into 3 groups, with 4 rats in each group, and administered the compounds intragastrically at a dose of 3.0 mg/kg and an administration volume of 10 mL/kg.
Blood samples (0.1 mL) were taken from the orbital sinus before administration, and at 0.5 h, 1 h, 2 h, 4 h, 6 h, 8 h, 11 h, 24 h and 48 h after administration, stored in heparinized tubes, and centrifuged for 10 minutes at 3,500 rpm to separate blood plasma. The plasma samples were stored at −20° C.
The concentration of the test compounds in rat plasma after intragastrically administering the test compounds was analyzed by a LC-MS/MS method. The linearity range of the method is 2.0-5000 ng/ml, and the lower limit of quantification is 2.00 ng/ml. Plasma samples were analyzed after protein precipitation.

Sequence of hURAT1 (Q96S37 whole entry): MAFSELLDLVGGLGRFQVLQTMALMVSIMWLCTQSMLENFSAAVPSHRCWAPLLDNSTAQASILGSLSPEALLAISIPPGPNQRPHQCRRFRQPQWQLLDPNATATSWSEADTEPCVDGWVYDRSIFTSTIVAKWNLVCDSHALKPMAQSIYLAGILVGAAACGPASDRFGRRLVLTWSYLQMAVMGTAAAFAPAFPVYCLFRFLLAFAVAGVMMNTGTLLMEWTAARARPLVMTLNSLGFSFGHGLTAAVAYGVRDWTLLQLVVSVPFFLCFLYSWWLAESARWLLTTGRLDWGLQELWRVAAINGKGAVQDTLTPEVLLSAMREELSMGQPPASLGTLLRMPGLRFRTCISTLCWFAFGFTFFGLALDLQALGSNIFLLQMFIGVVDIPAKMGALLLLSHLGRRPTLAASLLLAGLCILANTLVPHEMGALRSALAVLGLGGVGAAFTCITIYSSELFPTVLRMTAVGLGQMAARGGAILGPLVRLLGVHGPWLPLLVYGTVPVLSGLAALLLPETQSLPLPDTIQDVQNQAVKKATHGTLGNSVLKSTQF

SMILES	IC50 (hURAT1) [nM]	further results
O=C(O)C1(Sc2ccnc3ccc(Br)cc23)CCCC1 [Example 32, 1-((6-bromoquinolin-4-yl)thio)cyclopentanecarboxylic acid]	352	–
O=C(O)C1(Sc2ccnc3ccc(Br)cc23)CC1 [Example 33, 1-((6-bromoquinolin-4-yl)thio)cyclopropanecarboxylic acid]	324	–
O=C(O)C1(Sc2ccnc3ccc(-c4ccc(F)cc4)cc23)CCC1 [Example 7, 1-((6-(4-fluorophenyl)quinolin-4-yl)thio)cyclobutanecarboxylic acid]	159	–
O=C(O)C1(Sc2ccnc3ccc(-c4cccc(C(F)(F)F)c4)cc23)CCC1 [Example 8, 1-((6-(3-(trifluoromethyl)phenyl)quinolin-4-yl)thio)cyclobutanecarboxylic acid]	359	–
O=C(O)C1(Sc2ccnc3ccc(C(F)(F)F)cc23)CCC1 [Example 2, 1-((6-(trifluoromethyl)quinolin-4-yl)thio)cyclobutanecarboxylic acid]	61	Mean Residence Time MRT [1]: 12.9 ± 5.8 h; Vd/F [1]: 1.21 ± 0.674 L/kg; AUC [1]: 38200 ± 25100 ng·h/mL; CL/F [1]: 1.95 ± 1.31 mL/min/kg; half-life [1]: 8.83 ± 4.04 h; Cmax [1]: 2710 ± 919 ng/mL
N#Cc1ccc(SC2(C(=O)O)CCC2)c2ccccc12 [Example 10, 1-((4-cyanonaphthalen-1-yl)thio)cyclobutanecarboxylic acid]	926	–
O=C(O)C1(Sc2ccnc3ccccc23)CCC1 [Example 1, 1-(quinolin-4-ylthio)cyclobutanecarboxylic acid]	251	Vd/F [1]: 0.652 ± 0.333 L/kg; AUC [1]: 20700 ± 5270 ng·h/mL; CL/F [1]: 2.54 ± 0.68 mL/min/kg; half-life [1]: 2.84 ± 0.65 h; MRT [1]: 3.15 ± 0.82 h; Cmax [1]: 8800 ± 1760 ng/mL
O=C(O)C1(Sc2ccnc3ccc(-c4ccccc4C(F)(F)F)cc23)CCC1 [Example 22, 1-((6-(2-(trifluoromethyl)phenyl)quinolin-4-yl)thio)cyclobutanecarboxylic acid]	115	–
O=C(O)C1(Sc2ccnc3cc(Br)ccc23)CCC1 [Example 31, 1-((7-bromoquinolin-4-yl)thio)cyclobutanecarboxylic acid]	129	–
O=C(O)C1(Sc2ccnc3ccc(C4CC4)cc23)CCC1 [Example 23, 1-((6-cyclopropylquinolin-4-yl)thio)cyclobutanecarboxylic acid]	658	–
O=C(O)C1(Sc2ccnc3ccc(-c4cccc(F)c4)cc23)CCC1 [Example 6, 1-((6-(3-fluorophenyl)quinolin-4-yl)thio)cyclobutanecarboxylic acid]	332	–

Continued, in another order:

IC50 (hURAT1) [nM]	SMILES	further results
680	N#CCOc1ccc2nccc(SC3(C(=O)O)CCC3)c2c1 [Example 24, 1-((6-(cyanomethoxy)quinolin-4-yl)thio)cyclobutanecarboxylic acid]	–
19	O=C(O)C1(Sc2ccnc3ccc(Br)cc23)CCC1 [Example 3, 1-((6-bromoquinolin-4-yl)thio)cyclobutanecarboxylic acid]	Vd/F [1]: 0.878 ± 0.335 L/kg; AUC [1]: 28400 ± 8540 ng·h/mL; CL/F [1]: 1.89 ± 0.59 mL/min/kg; half-life [1]: 5.35 ± 1.12 h; MRT [1]: 8.15 ± 1.3 h; Cmax [1]: 3470 ± 854 ng/mL
207	COCCOc1ccc2nccc(SC3(C(=O)O)CCC3)c2c1 [Example 5, 1-((6-(2-methoxyethoxy)quinolin-4-yl)thio)cyclobutanecarboxylic acid]	–
398	N#Cc1ccc2nccc(SC3(C(=O)O)CCC3)c2c1 [Example 17, 1-((6-cyanoquinolin-4-yl)thio)cyclobutanecarboxylic acid]	–
557	O=C(O)C1(Sc2ccnc3ccc(F)cc23)CCC1 [Example 12, 1-((6-fluoroquinolin-4-yl)thio)cyclobutanecarboxylic acid]	–
343	COc1ccc2nccc(SC3(C(=O)O)CCC3)c2c1 [Example 4, 1-((6-methoxyquinolin-4-yl)thio)cyclobutanecarboxylic acid]	–
164	COC(=O)COc1ccc2nccc(SC3(C(=O)O)CCC3)c2c1 [Example 13, 1-((6-(2-methoxy-2-oxoethoxy)quinolin-4-yl)thio)cyclobutanecarboxylic acid]	–
197	COCc1ccc2nccc(SC3(C(=O)O)CCC3)c2c1 [Example 9, 1-((6-(methoxymethyl)quinolin-4-yl)thio)cyclobutanecarboxylic acid]	–
343	Cc1ccc2nccc(SC3(C(=O)O)CCC3)c2c1 [Example 30, 1-((6-methylquinolin-4-yl)thio)cyclobutanecarboxylic acid]	–
